The results in this text go back to ChEMBL document CHEMBL1201862, “PubChem BioAssay data set” (2004).

Calls of active or inactive are those of the source.

In one assay the target is Caspase-9 (Homo sapiens, UniProt P55211). In words: inhibitors of purified CASP9 protease – biochemical, fluorescence, plate reader, cherry-picked samples, selectivity assay for caspase-6 inhibitor project, dose response (AID 743293).
A further assay has as its system BJ. In words: cells. The conditions noted are these: Homo sapiens. In kind it is functional, cell-based.
A further assay is described as follows: cells. Type of assay: functional.
Assay [1] is described as follows: luciferase reporter signal suppression in cells – H4 neuroglioma cells, luminescence, dose response (AID 1990). In kind it is functional, cell-based. For orientation: Reporter assays use an easily measured gene product as a stand-in for the process of interest.
Assay [2] can be described thus: general cell-killing toxicity readout – plate reader, dry powder samples, cytotoxicity control for PAX8 inhibitor project, dose response (AID 743021). In kind it is functional, cell-based.
The next assay has as its system HEK293. Kind of assay: membrane integrity loss in HEK cells – cell-based, fluorescence, cytotoxicity control for IDE activator project, dose response (AID 588440).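 Note: cytotoxicity by LDH release measuring loss of membrane integrity.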 Type of assay: functional. The conditions noted are these: Homo sapiens.
Assay [3] addresses Heat shock protein HSP 90-alpha (Homo sapiens, UniProt P07900). Kind of assay: Luminescence-based dose response biochemical high throughput screening assay for inhibitors of the Heat Shock Protein 90 (HSP90). [Related pubchem assays: 1831 (Summary AID.), 1846 (Confirmation screen.), 1789 (Primary screen.)].
Another assay addresses T1, Hexokinase HKDC1 (Homo sapiens, UniProt Q2TB90).
T1 sequence (Q2TB90 whole entry): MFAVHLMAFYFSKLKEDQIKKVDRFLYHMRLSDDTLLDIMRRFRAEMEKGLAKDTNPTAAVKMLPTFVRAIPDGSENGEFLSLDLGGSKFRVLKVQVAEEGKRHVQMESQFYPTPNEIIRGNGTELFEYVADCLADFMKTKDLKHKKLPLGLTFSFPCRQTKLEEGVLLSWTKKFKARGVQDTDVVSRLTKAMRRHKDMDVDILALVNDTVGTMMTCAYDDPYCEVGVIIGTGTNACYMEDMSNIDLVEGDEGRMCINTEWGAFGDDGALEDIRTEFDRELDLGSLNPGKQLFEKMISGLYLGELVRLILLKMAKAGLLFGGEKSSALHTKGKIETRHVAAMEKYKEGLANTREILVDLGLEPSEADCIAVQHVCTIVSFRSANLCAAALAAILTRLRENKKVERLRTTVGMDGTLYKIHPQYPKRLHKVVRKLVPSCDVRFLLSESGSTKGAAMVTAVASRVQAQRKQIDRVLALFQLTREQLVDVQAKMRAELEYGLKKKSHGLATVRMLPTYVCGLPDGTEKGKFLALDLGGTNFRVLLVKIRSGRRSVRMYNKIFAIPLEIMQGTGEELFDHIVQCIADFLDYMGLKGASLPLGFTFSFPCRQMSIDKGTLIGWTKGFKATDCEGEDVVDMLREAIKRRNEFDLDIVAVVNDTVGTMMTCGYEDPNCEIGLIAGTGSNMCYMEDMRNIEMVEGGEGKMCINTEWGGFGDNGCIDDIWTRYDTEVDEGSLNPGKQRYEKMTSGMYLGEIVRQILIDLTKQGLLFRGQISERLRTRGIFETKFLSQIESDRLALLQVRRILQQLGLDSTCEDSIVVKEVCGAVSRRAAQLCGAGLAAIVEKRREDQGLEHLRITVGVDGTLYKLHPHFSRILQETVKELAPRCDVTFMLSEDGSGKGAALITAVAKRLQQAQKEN
Kind of assay: inhibition of HKDC1 glucose phosphorylation – biochemical, W721R variant, dose response (AID 504729). Type of assay: functional.

Assay [4] addresses Tyrosine-protein kinase JAK2 (Homo sapiens, UniProt O60674). In kind it is functional.
The target of assay [5] is Serine/threonine-protein kinase Nek4 (Homo sapiens, UniProt P51957). In kind it is functional.
The target of assay [6] is MAP/microtubule affinity-regulating kinase 3 (Homo sapiens, UniProt P27448). Type of assay: functional.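 Note: MARK3 affinity measured as one member of a kinome panel.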
Assay [7] addresses Interleukin-1 receptor-associated kinase 1 (Homo sapiens, UniProt P51617). Type of assay: functional.
Assay [8] concerns the target 5'-AMP-activated protein kinase catalytic subunit alpha-1 (Homo sapiens, UniProt Q13131). Type of assay: functional.
The target of assay [9] is MAP kinase-activated protein kinase 2 (Homo sapiens, UniProt P49137). Type of assay: functional.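 Note: measured as one member of a kinome-wide kinase panel.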
The target of the next assay is Ephrin type-A receptor 2 (Homo sapiens, UniProt P29317). In kind it is functional.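 Note: EPHA2 tested as one member of a kinome-wide kinase panel.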
The target in assay [10] is Mitogen-activated protein kinase kinase kinase 20 (Homo sapiens, UniProt Q9NYL2). In kind it is functional.
Assay [11] deals with MAP kinase-activated protein kinase 5 (Homo sapiens, UniProt Q8IW41). Type of assay: functional.
Assay [12] concerns the target Receptor-type tyrosine-protein kinase FLT3 (Homo sapiens, UniProt P36888). In kind it is functional.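 Note: FLT3 was tested as one member of a kinome-wide kinase panel.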
Assay [13] deals with Receptor tyrosine-protein kinase erbB-2 (Homo sapiens, UniProt P04626). In words: Navigating the Kinome. Panel member name: ERBB2. In kind it is functional.
For assay [14], the target named is Casein kinase I isoform alpha (Homo sapiens, UniProt P48729). In kind it is functional.
The target of assay [15] is Mitogen-activated protein kinase 9 (Homo sapiens, UniProt P45984). Type of assay: functional.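 Note: value from a kinome panel profiling assay, MAPK9 panel entry.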
The target of assay [16] is Lymphokine-activated killer T-cell-originated protein kinase (Homo sapiens, UniProt Q96KB5). Type of assay: functional.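 Note: value comes from a kinase panel screen in which TOPK was one of the panel members.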
For assay [17], the target named is Protein kinase C zeta type (Homo sapiens, UniProt Q05513). Type of assay: functional.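 Note: measured as one member of a broad kinase profiling panel.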
Assay [18] has as its target Cyclin-dependent kinase 2 (Homo sapiens, UniProt P24941). In kind it is functional.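 Note: CDK2 measured as one member of a broad kinome profiling panel.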
The target of assay [19] is cAMP-dependent protein kinase catalytic subunit PRKX (Homo sapiens, UniProt P51817). Type of assay: functional.
In assay [20] the target is Serine/threonine-protein kinase D2 (Homo sapiens, UniProt Q9BZL6). Type of assay: functional.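 Note: measured against PRKD2 as one member of a kinome-wide kinase profiling panel.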
Assay [21] concerns the target Maternal embryonic leucine zipper kinase (Homo sapiens, UniProt Q14680). In kind it is functional.
In assay [22] the target is Serine/threonine-protein kinase TAO1 (Homo sapiens, UniProt Q7L7X3). Type of assay: functional.
In assay [23] the target is Mast/stem cell growth factor receptor Kit (Homo sapiens, UniProt P10721). Type of assay: functional.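 Note: KIT entry within a kinase panel assay.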
The target of assay [24] is Insulin-like growth factor 1 receptor (Homo sapiens, UniProt P08069). In words: Navigating the Kinome. Panel member name: IGF1R. Type of assay: functional.
Insulin-like growth factor 1 receptor, sequence (P08069 31-736 limits assumed): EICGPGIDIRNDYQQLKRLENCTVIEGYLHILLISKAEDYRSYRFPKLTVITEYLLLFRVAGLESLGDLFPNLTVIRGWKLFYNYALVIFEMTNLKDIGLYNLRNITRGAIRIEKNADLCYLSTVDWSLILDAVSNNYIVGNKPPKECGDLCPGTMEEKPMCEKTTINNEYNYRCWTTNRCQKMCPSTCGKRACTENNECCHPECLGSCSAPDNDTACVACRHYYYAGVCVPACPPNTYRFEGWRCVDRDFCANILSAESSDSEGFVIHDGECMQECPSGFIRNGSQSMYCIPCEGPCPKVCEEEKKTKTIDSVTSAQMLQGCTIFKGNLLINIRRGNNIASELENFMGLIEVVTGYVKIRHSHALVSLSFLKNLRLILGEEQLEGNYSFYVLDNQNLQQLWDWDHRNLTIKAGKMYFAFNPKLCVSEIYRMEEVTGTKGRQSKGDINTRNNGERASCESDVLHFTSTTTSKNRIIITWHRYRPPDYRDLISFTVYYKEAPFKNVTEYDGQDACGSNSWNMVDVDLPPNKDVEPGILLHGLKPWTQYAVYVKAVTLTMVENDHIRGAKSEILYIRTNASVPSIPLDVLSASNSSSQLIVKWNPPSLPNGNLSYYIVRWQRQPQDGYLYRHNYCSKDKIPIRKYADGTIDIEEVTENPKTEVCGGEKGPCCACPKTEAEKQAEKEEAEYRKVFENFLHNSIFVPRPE
Insulin-like growth factor 1 receptor, sequence (P08069 741-1367 limits assumed): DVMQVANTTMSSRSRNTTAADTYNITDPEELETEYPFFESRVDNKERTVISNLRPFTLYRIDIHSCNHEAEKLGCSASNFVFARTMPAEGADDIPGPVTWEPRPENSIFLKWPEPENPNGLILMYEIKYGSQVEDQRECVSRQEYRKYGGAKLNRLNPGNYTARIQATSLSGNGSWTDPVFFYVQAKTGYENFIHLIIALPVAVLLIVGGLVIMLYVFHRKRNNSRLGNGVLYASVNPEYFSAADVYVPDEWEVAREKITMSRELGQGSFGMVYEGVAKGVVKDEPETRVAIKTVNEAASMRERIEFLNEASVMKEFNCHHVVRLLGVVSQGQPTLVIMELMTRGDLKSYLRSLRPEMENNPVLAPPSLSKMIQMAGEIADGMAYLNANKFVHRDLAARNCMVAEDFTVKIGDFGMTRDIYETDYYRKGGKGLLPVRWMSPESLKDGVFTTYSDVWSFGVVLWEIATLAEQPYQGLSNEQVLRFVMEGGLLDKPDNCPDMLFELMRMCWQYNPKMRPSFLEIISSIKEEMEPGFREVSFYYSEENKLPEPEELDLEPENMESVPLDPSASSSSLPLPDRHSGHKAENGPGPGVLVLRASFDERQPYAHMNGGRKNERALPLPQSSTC

Serine/threonine-protein kinase Nek4, sequence (P51957 whole entry): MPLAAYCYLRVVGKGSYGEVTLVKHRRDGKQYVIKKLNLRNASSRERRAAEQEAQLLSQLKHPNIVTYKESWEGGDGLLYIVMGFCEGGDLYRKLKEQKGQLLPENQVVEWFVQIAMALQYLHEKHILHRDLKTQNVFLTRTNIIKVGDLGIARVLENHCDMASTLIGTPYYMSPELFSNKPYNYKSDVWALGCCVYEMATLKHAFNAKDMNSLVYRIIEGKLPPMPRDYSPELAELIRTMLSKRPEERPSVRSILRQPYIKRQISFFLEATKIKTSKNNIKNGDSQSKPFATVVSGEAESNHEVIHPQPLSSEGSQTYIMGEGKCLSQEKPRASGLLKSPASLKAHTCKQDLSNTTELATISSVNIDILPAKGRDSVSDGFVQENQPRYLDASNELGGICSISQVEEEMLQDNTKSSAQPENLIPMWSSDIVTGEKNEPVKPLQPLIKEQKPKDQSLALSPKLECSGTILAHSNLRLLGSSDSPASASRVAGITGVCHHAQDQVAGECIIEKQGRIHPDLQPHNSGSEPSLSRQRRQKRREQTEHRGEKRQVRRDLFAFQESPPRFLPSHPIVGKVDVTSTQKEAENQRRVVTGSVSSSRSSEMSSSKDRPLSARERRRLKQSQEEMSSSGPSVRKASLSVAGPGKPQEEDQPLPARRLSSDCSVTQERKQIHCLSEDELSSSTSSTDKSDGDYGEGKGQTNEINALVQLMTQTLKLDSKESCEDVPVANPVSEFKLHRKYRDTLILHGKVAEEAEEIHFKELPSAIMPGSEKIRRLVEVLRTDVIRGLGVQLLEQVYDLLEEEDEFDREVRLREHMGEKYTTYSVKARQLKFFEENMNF
MAP kinase-activated protein kinase 2, sequence (P49137 whole entry): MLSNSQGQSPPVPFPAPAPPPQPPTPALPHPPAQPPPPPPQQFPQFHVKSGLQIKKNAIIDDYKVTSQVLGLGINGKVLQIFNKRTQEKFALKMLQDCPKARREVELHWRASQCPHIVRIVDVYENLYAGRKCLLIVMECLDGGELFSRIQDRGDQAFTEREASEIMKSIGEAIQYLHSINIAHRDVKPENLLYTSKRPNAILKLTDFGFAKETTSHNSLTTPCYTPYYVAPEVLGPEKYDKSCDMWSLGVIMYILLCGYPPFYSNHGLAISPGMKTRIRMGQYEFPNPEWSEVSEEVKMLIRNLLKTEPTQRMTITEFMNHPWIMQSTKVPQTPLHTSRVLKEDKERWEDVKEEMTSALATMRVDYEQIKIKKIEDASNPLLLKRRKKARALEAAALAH
MAP kinase-activated protein kinase 5, sequence (Q8IW41 whole entry): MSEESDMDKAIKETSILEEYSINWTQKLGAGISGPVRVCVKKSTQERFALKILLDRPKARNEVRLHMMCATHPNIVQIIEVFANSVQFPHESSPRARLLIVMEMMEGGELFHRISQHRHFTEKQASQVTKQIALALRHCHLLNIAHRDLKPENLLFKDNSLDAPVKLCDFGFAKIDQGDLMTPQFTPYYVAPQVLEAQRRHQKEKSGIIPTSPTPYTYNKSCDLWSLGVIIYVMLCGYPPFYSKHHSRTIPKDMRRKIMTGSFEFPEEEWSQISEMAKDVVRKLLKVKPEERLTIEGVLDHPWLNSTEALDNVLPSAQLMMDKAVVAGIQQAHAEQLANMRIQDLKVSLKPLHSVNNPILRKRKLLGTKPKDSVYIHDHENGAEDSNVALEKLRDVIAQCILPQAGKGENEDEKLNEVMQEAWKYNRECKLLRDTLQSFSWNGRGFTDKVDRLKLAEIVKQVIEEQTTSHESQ
Casein kinase I isoform alpha, sequence (P48729 whole entry, canonical isoform): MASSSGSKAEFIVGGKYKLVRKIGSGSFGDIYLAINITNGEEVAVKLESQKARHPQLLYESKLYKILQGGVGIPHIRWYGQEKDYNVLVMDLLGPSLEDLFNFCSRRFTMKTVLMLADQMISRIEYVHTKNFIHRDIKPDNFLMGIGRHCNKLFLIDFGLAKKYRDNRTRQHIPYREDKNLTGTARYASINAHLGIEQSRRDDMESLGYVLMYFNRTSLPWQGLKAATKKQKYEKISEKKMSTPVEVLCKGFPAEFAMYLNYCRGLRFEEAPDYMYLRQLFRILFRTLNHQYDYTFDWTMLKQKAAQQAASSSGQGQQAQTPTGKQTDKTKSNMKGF
Receptor tyrosine-protein kinase erbB-2, sequence (P04626 whole entry, canonical isoform): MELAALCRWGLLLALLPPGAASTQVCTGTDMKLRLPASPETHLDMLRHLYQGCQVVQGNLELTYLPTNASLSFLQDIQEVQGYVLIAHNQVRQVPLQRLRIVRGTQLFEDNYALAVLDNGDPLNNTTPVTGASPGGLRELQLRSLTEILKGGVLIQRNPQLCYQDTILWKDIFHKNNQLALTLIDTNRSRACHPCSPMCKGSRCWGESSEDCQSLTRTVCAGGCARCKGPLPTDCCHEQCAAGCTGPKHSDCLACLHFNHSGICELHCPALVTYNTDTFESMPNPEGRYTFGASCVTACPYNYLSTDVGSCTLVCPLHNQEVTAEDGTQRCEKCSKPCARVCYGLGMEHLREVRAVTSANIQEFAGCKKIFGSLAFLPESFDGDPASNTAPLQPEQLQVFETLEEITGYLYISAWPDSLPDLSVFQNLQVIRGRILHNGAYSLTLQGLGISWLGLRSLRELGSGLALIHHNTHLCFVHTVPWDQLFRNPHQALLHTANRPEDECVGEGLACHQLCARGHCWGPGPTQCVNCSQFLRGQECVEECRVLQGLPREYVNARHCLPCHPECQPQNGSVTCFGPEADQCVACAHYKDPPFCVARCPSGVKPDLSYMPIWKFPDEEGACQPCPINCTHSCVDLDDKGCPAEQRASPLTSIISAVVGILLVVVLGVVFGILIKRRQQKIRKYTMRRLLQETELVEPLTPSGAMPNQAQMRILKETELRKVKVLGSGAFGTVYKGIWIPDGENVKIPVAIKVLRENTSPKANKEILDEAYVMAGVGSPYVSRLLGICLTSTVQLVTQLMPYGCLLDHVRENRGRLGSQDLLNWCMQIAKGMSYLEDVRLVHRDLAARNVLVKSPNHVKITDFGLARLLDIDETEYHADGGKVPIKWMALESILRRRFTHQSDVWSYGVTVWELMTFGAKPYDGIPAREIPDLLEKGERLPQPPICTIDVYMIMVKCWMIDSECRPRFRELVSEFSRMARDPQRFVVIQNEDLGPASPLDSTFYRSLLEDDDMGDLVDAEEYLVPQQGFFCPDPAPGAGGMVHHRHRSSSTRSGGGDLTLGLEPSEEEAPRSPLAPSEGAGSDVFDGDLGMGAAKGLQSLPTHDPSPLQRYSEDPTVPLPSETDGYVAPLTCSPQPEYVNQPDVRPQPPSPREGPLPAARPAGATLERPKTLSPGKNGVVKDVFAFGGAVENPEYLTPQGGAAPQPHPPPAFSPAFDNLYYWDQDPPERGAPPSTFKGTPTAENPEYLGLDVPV
cAMP-dependent protein kinase catalytic subunit PRKX, sequence (P51817 whole entry): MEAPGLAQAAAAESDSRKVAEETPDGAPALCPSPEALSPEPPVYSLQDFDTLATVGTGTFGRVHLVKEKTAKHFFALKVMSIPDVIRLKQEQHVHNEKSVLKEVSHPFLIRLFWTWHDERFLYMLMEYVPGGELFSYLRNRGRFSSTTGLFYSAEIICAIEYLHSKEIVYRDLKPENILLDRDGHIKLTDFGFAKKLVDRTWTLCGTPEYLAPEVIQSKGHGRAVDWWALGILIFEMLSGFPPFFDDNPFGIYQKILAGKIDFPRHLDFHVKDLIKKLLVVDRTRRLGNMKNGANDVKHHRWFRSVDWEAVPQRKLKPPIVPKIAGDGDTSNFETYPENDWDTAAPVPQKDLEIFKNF

What is called AC50 is the concentration giving half of the maximal activity seen. As a reminder, the EC50 is the concentration giving half of the maximal effect. In general, IC50 refers to the point on the concentration scale where inhibition reaches its midpoint. For `O=[N+]([O-])c1c(Nc2ccccn2)cc(Cl)c2nonc12`, the AC50 at Caspase-9 was 17.4 µM (active). The half-maximal effective concentration (EC50) in the assay with BJ was 5.38 µM (active). In the assay “cells”, the IC50 is 0.32 µM (active).
With `CC[C@@H](C)[C@H](CNC)NC[C@@H](Cc1cccc2ccccc12)NCCc1cccc(C(F)(F)F)c1`, in [1], the EC50 is 8.36 µM (active). The AC50 in assay [2] was 27.5 µM (active). The IC50 in the assay with HEK293 was 8.67 µM (active).
As to `Cc1ccc(S(=O)(=O)/N=C2\C=C(Nc3cccc(C(=O)O)c3)C(=O)c3ccccc32)cc1`, the figures for the IC50 (in assay [3]; on Hexokinase HKDC1) were 0.524 µM (active) and 4.31 µM (active), respectively.
What is called Ki is a measure of affinity in units of concentration, obtained from inhibition or displacement. With `CC(C)(CO)CNc1nccc(-c2c(-c3ccc(F)cc3)nc3c(CC4CC4)nccn23)n1`, the Ki was > 1.58 µM (inactive) in [4]; > 6.31 µM (inactive) in assay [5]; > 6.31 µM (inactive) in assay [6]; > 7.94 µM (inactive) in assay [7]; > 6.31 µM (inactive) in assay [8]; > 7.94 µM (inactive) in assay [9]. For the same molecule, the Ki on Ephrin type-A receptor 2 is > 3.16 µM (inactive); in assay [10] it was > 7.94 µM (inactive); in assay [11], > 1.58 µM (inactive); in assay [12], > 2.51 µM (inactive); in [13], > 1.58 µM (inactive); in assay [14], 1.26 µM (active). For the same molecule, the Ki in [15] is 0.0316 µM (active); in assay [16] it was 0.316 µM (active); in [17], > 7.94 µM (inactive); in assay [18] it was > 7.94 µM (inactive); in assay [19], > 1.58 µM (inactive); in assay [20], > 10 µM (inactive). Further, the Ki in [21] is > 1.58 µM (inactive); in assay [22], 7.94 µM (active); in assay [23], > 1.26 µM (inactive); in assay [24] it was > 2 µM (inactive).
